# According to patent US20070037752A1, “Novel alanyl-amino peptidase inhibitors for functionally influencing different cells and treating immunological, inflammatory, neuronal, and other diseases” (priority 2003, published 2007):
# Residues, ends and D or L forms follow the SMILES beside them. *: point of attachment. Fmoc = O=C(OCC1c2ccccc2-c2ccccc21)*
# Biological target: alanyl aminopeptidases (APN) (Homo sapiens, UniProt P15144)
# Assay: Inhibition of alanyl aminopeptidase enzymatic activity, fluorogenic substrate (Ala)2-rhodamine 110
# Assay type: biochemical
# Conditions: Table 3, starred values = ID50; read-out: ID50 APN (values marked with *)
# Protocol: The inhibition characteristics measured are referred to as IC-50 values or ID50 values (the latter marked with “*”) for said enzyme. The enzymatic activity was determined by means of the fluorogenic substrate/product (Ala)2-rhodamine 110.
# alanyl aminopeptidases (APN), sequence (P15144 whole entry, species assumed): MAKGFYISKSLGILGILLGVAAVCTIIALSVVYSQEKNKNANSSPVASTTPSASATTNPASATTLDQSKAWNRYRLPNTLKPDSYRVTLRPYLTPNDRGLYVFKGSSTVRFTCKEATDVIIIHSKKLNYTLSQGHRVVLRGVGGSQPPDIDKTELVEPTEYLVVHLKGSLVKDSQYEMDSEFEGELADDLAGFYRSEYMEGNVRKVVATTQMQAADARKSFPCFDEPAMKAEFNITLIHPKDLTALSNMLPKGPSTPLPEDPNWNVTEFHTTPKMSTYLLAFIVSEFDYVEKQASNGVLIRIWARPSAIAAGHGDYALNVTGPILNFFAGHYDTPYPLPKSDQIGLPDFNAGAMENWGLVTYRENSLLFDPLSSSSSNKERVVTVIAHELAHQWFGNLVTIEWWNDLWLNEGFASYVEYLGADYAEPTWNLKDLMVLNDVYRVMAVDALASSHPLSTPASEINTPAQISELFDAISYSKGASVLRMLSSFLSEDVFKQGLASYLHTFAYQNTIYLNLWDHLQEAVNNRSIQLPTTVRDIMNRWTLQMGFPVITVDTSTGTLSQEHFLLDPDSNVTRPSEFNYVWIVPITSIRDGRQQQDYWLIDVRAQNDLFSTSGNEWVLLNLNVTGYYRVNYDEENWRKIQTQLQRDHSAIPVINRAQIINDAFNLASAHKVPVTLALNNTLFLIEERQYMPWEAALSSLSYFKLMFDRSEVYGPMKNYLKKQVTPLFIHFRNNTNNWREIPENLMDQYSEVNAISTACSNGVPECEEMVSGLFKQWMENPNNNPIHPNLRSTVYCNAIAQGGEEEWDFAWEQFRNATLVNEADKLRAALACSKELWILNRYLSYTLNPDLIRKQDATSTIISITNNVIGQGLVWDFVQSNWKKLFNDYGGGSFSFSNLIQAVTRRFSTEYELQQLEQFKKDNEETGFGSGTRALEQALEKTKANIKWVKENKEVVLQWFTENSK
row,Structure (SMILES),IC50 [µM]
1,COc1cccc(C(=O)NCC(=O)N/N=C/c2ccc([N+](=O)[O-])o2)c1 [A3.340],222
2,C#CCN1C(c2cnccn2)=NC(CC(C)C)C1C(=O)Nc1c(C)cccc1C (centres unmarked) [A3.319],103
3,Cn1c(=O)c2c(ncn2CC(=O)N/N=C/C=C\c2ccco2)n(C)c1=O [A3.307],79.8
4,CC1=C(C#N)C(=O)N(CC(C)O)C(=O)/C1=C/c1ccc(-c2ccc(Br)cc2)o1 (centres unmarked) [A3.252],47.2
5,O=C(N/N=C\C=C\c1ccco1)c1cc(-c2cccs2)n[nH]1 [A3.324],132

# Same assay, conditions: Table 3, unstarred values
row,Structure (SMILES),IC50APN
1,COC(=O)C1=C(N)N2C(=O)CSC2=C(C(=O)OC)C1 [A3.001],“very high

# Same assay, conditions: Table 3, unstarred values; read-out: IC50APN
row,Structure (SMILES),IC50 [µM]
1,O=C(O)c1ccc(-n2c(/C=C/c3ccco3)nc3ccccc3c2=O)cc1 [A3.116],21.2
2,CN(C)CCCN1CCN(c2nc(N(C)CC(=O)O)c3ncn(Cc4ccc(C(F)(F)F)cc4)c3n2)CC1 [A3.137],23
3,CC1CCCCN1S(=O)(=O)c1ccc(NC(=O)/C=C/c2ccco2)cc1 (centres unmarked) [A3.103],19.9
4,O=C(N/C(=C\c1ccco1)C(=O)N1CCOCC1)c1ccco1 [A3.058],13.5
5,CCOc1ccc(-c2cc(C(=O)N/N=C/c3ccco3)[nH]n2)cc1OC [A3.201],33.4
6,CC(=O)N1CCOC1(C)c1ccc([N+](=O)[O-])cc1 (centres unmarked) [A3.200],32.8
7,CC(=O)Nc1ccc(C(=O)N/N=C/c2ccco2)cc1 [A3.230],38.4
8,NC(=S)N/N=C/c1ccco1 [A3.261],50
9,COC(=O)c1ccc(-c2ccc(/C=C3\C(=O)N(CCCO)C(=O)C(C#N)=C3C)o2)cc1 [A3.018],5
10,Cc1cccc(C)c1Nc1c(-c2ccccc2NC(=O)Nc2cccc(Cl)c2)nc2c(C(=O)NCC(C)C)cccn12 [A3.121],21.6
11,COC(=O)CCC/C=C1/SC[C@@H](NC(=O)c2ccccc2)/C1=N/O [A3.317],93.6
12,O=C(Nc1ccc(N=Nc2ccccc2)cc1)c1ccc(S(=O)(=O)N2CCCC2)cc1 [A3.122],21.6
13,Cc1ccc(NC(=O)/C(=C\c2ccco2)NC(=O)c2ccc(C)cc2)cc1 [A3.077],16.4
14,CC1CCc2c(sc(NC(=O)C(C(F)(F)F)C(F)(F)F)c2C#N)C1 (centres unmarked) [A3.266],51.3
15,O=C(CNC(=O)c1ccccc1F)N/N=C/c1ccc([N+](=O)[O-])o1 [A3.280],60
16,CC1CCN(C(=O)/C(=C\c2ccco2)NC(=O)c2ccccc2)CC1 [A3.244],45
17,O=[N+]([O-])c1ccc(C2OCN3COCC23)cc1 (centres unmarked) [A3.287],64.5
18,O=C(NNC1=C(Cl)C(=O)C(Cl)(Cl)C1=O)c1ccccc1 [A3.070],15.2
19,O=C(COc1ccc2ccccc2c1Br)N/N=C/c1ccco1 [A3.253],47.3
20,CC(=O)c1cccc(-c2ccc(/C=C3/C(=O)N(CCCO)C(=O)C(C#N)=C3C)o2)c1 [A3.089],18.2
21,O=C(N/N=C/c1ccco1)c1cc(C2CC2)n[nH]1 [A3.064],14.3
22,CC(C)CC(NC(=O)C(CCC(N)=O)NC(=O)CNC(=O)C(NC(=O)OCC1c2ccccc2-c2ccccc21)C(C)C)C(=O)O (centres unmarked) [A3.132] (Fmoc-VGQL-OH; configuration not given here),22.5
23,Cc1ccc(/C=N/NC(=O)COc2ccc(Cl)cc2)o1 [A3.076],16
24,O=C(N/N=C/C=C\c1ccco1)c1ccoc1 [A3.186],30.1
25,O=C(N/C(=C\c1ccco1)C(=O)N1CCOCC1)c1ccccc1Cl [A3.154],25.5
26,O=C(Nc1ccc(F)cc1)c1ccc([NH+]([O-])O)o1 (centres unmarked) [A3.226],37.4

# Same assay, conditions: Table 4, starred values = ID50; read-out: ID50 APN (values marked with *)
row,Structure (SMILES),IC50 [µM]
1,C/C(=N\NC(=O)COc1ccc(C)cc1[N+](=O)[O-])c1ccco1 [A4.187],422

# Same assay, conditions: Table 4, unstarred values; read-out: IC50APN
row,Structure (SMILES),IC50 [µM]
1,Cc1ccc(/C=N/NC(=O)c2cccc(NC(=O)c3ccc(F)cc3)c2)o1 [A4.014],9.8
2,Cc1ccc(/C=N/NC(=O)c2ccc(NC(=O)c3ccccc3C)cc2)o1 [A4.067],22.8
3,O=C(N/N=C/C=C\c1ccco1)c1cccs1 [A4.151],62.7
4,COc1ccc(CCCC(=O)N/N=C/c2ccco2)cc1 [A4.071],23.4
5,O=C(COc1ccc(F)cc1)N/N=C/c1ccco1 [A4.026],13.6
6,CC(=O)Oc1ccc([N+](=O)[O-])cc1/C=N/NC(=O)COc1cc(C)ccc1C(C)C [A4.055],20.3
7,CC(/C=C/c1ccco1)=N\NC(=O)CNc1ccc2ccccc2c1 [A4.091],28.5
8,O=C(N/N=C\c1ccco1)c1cnccn1 [A4.097],30.1
9,Cc1cccc(C(=O)Nc2cccc(C(=O)N/N=C/c3ccc(C)o3)c2)c1 [A4.115],36.2
10,CCOc1ccc(-c2cc(C(=O)N/N=C/c3ccco3)[nH]n2)cc1OC [A4.104],33.4
11,O=C(N/N=C/c1ccco1)c1cccc(I)c1 [A4.111],34.7
12,CC(/C=C/c1ccco1)=N\NC(=O)COc1ccc(C(C)(C)C)cc1 [A4.145],53.4
13,COc1ccc(/C(C)=N/NC(=O)CNC(=O)/C=C\c2ccco2)cc1OC [A4.053],19.9
14,O=C(COc1ccccc1)N/N=C/c1ccco1 [A4.170],87.5
15,CC(N/N=C1/SC(CC(=O)O)C(=O)N1c1ccccc1)c1ccco1 (centres unmarked) [A4.092],28.6
16,CCN(CC)c1ccc(/C=C(/NC(=O)c2ccccc2)C(=O)N/N=C/c2cc(I)c(O)c(I)c2)cc1 [A4.004],5.1
17,Cc1ccccc1S(=O)(=O)Nc1cccc(C(=O)N/N=C/c2ccco2)c1 [A4.049],19.2
18,COc1ccccc1C(=O)N/N=C/c1ccco1 [A4.131],44.7
19,Cc1ccc(/C=N/NC(=O)c2cn(-c3nonc3N)nn2)o1 [A4.008],6.9
20,CC(=O)Nc1ccc(C(=O)N/N=C/c2ccco2)cc1 [A4.123],38.4
21,O=C(CCC(=O)Nc1ccccc1)N/N=C/c1ccco1 [A4.125],41.1
22,C/C(CC1N=NC([N+](=O)[O-])=N1)=N/NC(=O)COc1ccccc1[N+](=O)[O-] (centres unmarked) [A4.001],3.4
23,O=C(N/N=C/c1ccco1)c1cccc(NC(=O)c2cccc(Br)c2)c1 [A4.064],22.4
24,Cc1cc(I)ccc1NC(=O)CCC(=O)N/N=C/c1ccco1 [A4.048],9.5

# Same assay, conditions: Table 6; read-out: IC50APN
row,Structure (SMILES),IC50 [µM]
1,CCOC(=O)c1c(C)oc2c1c1c(c3ccccc32)OCN(C2CCS(=O)(=O)C2)C1 (centres unmarked) [A6.010],22.3
2,O=C(Nc1ccc(N=Nc2ccccc2)cc1)c1ccc(S(=O)(=O)N2CCCC2)cc1 [A6.012],21.6

# Same assay, conditions: Table 7; read-out: IC50APN
row,Structure (SMILES),IC50 [µM]
1,Cc1ccc(S(=O)(=O)CNC(=S)c2ccc3ccccc3c2)cc1 [A7.004],11.8
2,O=C1C(Cc2ccc(O)cc2)NC(=S)N1C1CCCCC1 (centres unmarked) [A7.011],21.3

# Same assay, conditions: Table 8, unstarred values; read-out: IC50APN
row,Structure (SMILES),IC50 [µM]
1,Cc1cccc(C)c1Nc1c(-c2ccccc2NC(=O)Nc2ccccc2)nc2c(C(=O)NCc3ccc(F)cc3)cccn12 [A8.015],14.9
2,CC(C)CC1CC(=S)C(C2CCCCC2)C1=O (centres unmarked) [A8.007],8
3,Cc1ccc(Cn2c(SCCC(=O)O)nc3c2c(=O)n(C)c(=O)n3C)cc1 [A8.025],28
4,COC(=O)C1=C(C(=O)OC)C(c2cc(Br)ccc2O)c2sc(O)nc2S1 (centres unmarked) [A8.003],4.7
5,Cn1nc(-c2cccs2)nc2c(=O)n(C)c(=O)nc1-2 [A8.021],25

# Same assay, conditions: Table 9, starred values = ID50; read-out: ID50 APN (values marked with *)
row,Structure (SMILES),IC50 [µM]
1,CCOC(=O)c1ccc(-c2ccc(/C=C3\C(=O)N(CCO)C(=O)C(C#N)=C3C)o2)cc1 [A9.005],2.7
2,CC(=O)Oc1ccc2c(=O)c(-c3cnn(-c4ccccc4)c3)c(C(F)(F)F)oc2c1OC(C)=O [A9.122],134

# Same assay, conditions: Table 9, unstarred values; read-out: IC50APN
row,Structure (SMILES),IC50 [µM]
1,CCc1c(C)nc2c(OC)cccc2c1SCC(=O)O [A9.082],31.1
2,O=C(CCCCCN1C(=O)c2cccc3cccc(c23)C1=O)NO [A9.032],14.1
3,CC(=O)c1cccc(-c2ccc(/C=C3/C(=O)N(CCCO)C(=O)C(C#N)=C3C)o2)c1 [A9.042],18.2
4,CCCOC(=O)c1cc(-c2ccc(/C=C3\C(=O)NC(=O)C(C#N)=C3C)o2)ccc1Cl [A9.091],36.8
5,O=C(N/C(=C\c1ccco1)C(=O)N1CCOCC1)c1ccco1 [A9.029],13.5
6,CC1CCN(C(=O)/C(=C\c2ccco2)NC(=O)c2ccc(Cl)cc2)CC1 [A9.009],6.2
7,Cc1ccc(C(=O)N/C(=C\c2ccco2)C(=O)N2CC3CC(C2)c2cccc(=O)n2C3)cc1 (centres unmarked) [A9.023],11

# Same assay, conditions: Table 10; read-out: IC50APN
row,Structure (SMILES),IC50 [µM]
1,O=C(N/N=C\c1ccco1)c1ccc(S(=O)(=O)N2CCCCCC2)cc1 [A10.002],8
2,CC1CC(=O)N(C(=O)CCBr)c2ccc([N+](=O)[O-])cc2N1C(=O)CCBr (centres unmarked) [A10.008],99.8
3,Cc1ccc(C(=O)N/C(=C\c2ccco2)C(=O)N2CC3CC(C2)c2cccc(=O)n2C3)cc1 (centres unmarked) [A10.005],11

# Same assay, conditions: Table 11; read-out: IC50APN
row,Structure (SMILES),IC50 [µM]
1,CCN(CC)C(=O)c1cc([N+](=O)[O-])ccc1C(=O)O [A11.009],12.1
2,O=C1C=CC(=O)N1c1cc([N+](=O)[O-])ccc1F [A11.015],20.8
3,CCN(CC)c1ccc(/C=C(\NC(=O)c2ccccc2)C(=O)N/N=C/c2ccc(O)c([N+](=O)[O-])c2)cc1 [A11.002],7.6

# Same assay, conditions: Table 12; read-out: IC50APN
row,Structure (SMILES),IC50 [µM]
1,CCc1cccc(CC)c1NC(=S)N/N=C1\C(=O)N(CN2CC(C)CC(C)C2)c2ccccc21 (centres unmarked) [A12.010],6.7
2,O=C(O)C1N=NC(c2ccc(F)cc2)=CN1O (centres unmarked) [A12.031],17.1
3,O=C(NC(Sc1ccncn1)C(=O)c1ccccc1)c1ccccc1 (centres unmarked) [A12.045],26.9
4,Cc1ccc(/C=C(\NC(=O)c2ccccc2)C(=O)NCCN2CCOCC2)o1 [A12.063],55
5,O=C(CS(=O)(=O)c1ccc(Cl)cc1)NO [A12.021],11.5
6,CC1=C(C#N)C(=O)N(CC(C)O)C(=O)/C1=C/c1ccc(-c2ccc(Br)cc2)o1 (centres unmarked) [A12.058],47.2
7,O=C(N/C(=C\c1ccco1)C(=O)N1CCC(O)CC1)c1ccccc1 [A12.038],21.1

# Same assay, conditions: Table 14
row,Structure (SMILES),IC50APN
1,COC(=O)C1=C(N)N2C(=O)CSC2=C(C(=O)OC)C1 [A14.001],"“positively very highly active”, means beyond measurement- scale”"
